Test system: white clover
Assay: Greenhouse pot test, postemergent spray, visual control rating converted to percent control
Assay type: in vivo
Procedure, shortened: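 Potted plants in soilless greenhouse medium were sprayed at 43.46 gallons of spray solution/acre and kept in the greenhouse. Effects were rated visually on a 1–9 scale (1 = no control, 9 = plant death) at 24, 48 and 72 HAT and 7, 14 and 21 DAT, then converted to percent control.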

Compound: O=C(O)c1c(Cl)ccc2cc(Cl)cnc12 [Quinclorac, 3,7-dichloro-8-quinolinecarboxylic acid]
- % Control Clover (Test 1, 7 DAT, 0.18 lbs/A): 33.3%
- Control (1-9) Clover (Test 1, 7 DAT, 0.18 lbs/A): 3
- % Control Clover (Test 1, 7 DAT, 0.375 lbs/A): 33.3%
- Control (1-9) Clover (Test 1, 7 DAT, 0.375 lbs/A): 3
- % Control Clover (Test 1, 7 DAT, 0.75 lbs/A): 33.3%
- Control (1-9) Clover (Test 1, 7 DAT, 0.75 lbs/A): 3
- % Control Clover (Test 1, 14 DAT, 0.18 lbs/A): 100.0%
- Control (1-9) Clover (Test 1, 14 DAT, 0.18 lbs/A): 9
- % Control Clover (Test 1, 14 DAT, 0.375 lbs/A): 100.0%
- Control (1-9) Clover (Test 1, 14 DAT, 0.375 lbs/A): 9
- % Control Clover (Test 1, 14 DAT, 0.75 lbs/A): 88.9%
- Control (1-9) Clover (Test 1, 14 DAT, 0.75 lbs/A): 8
- % Control Clover (Test 1, 24 HAT, 0.18 lbs/A): 11.1%
- Control (1-9) Clover (Test 1, 24 HAT, 0.18 lbs/A): 1
- % Control Clover (Test 1, 24 HAT, 0.375 lbs/A): 11.1%
- Control (1-9) Clover (Test 1, 24 HAT, 0.375 lbs/A): 1
- % Control Clover (Test 1, 24 HAT, 0.75 lbs/A): 11.1%
- Control (1-9) Clover (Test 1, 24 HAT, 0.75 lbs/A): 1
- % Control Clover (Test 1, 48 HAT, 0.18 lbs/A): 22.2%
- Control (1-9) Clover (Test 1, 48 HAT, 0.18 lbs/A): 2
- % Control Clover (Test 1, 48 HAT, 0.375 lbs/A): 33.3%
- Control (1-9) Clover (Test 1, 48 HAT, 0.375 lbs/A): 3
- % Control Clover (Test 1, 48 HAT, 0.75 lbs/A): 33.3%
- Control (1-9) Clover (Test 1, 48 HAT, 0.75 lbs/A): 3
- % Control Clover (Test 2, 7 DAT, 0.18 lbs/A): 66.7%
- Control (1-9) Clover (Test 2, 7 DAT, 0.18 lbs/A): 6
- % Control Clover (Test 2, 7 DAT, 0.375 lbs/A): 77.8%
- Control (1-9) Clover (Test 2, 7 DAT, 0.375 lbs/A): 7
- % Control Clover (Test 2, 7 DAT, 0.75 lbs/A): 77.8%
- Control (1-9) Clover (Test 2, 7 DAT, 0.75 lbs/A): 7
- % Control Clover (Test 2, 14 DAT, 0.18 lbs/A): 100.0%
- Control (1-9) Clover (Test 2, 14 DAT, 0.18 lbs/A): 9
- % Control Clover (Test 2, 14 DAT, 0.375 lbs/A): 100.0%
- Control (1-9) Clover (Test 2, 14 DAT, 0.375 lbs/A): 9
- % Control Clover (Test 2, 14 DAT, 0.75 lbs/A): 100.0%
- Control (1-9) Clover (Test 2, 14 DAT, 0.75 lbs/A): 9
- % Control Clover (Test 2, 24 HAT, 0.18 lbs/A): 22.2%
- Control (1-9) Clover (Test 2, 24 HAT, 0.18 lbs/A): 2
- % Control Clover (Test 2, 24 HAT, 0.375 lbs/A): 22.2%
- Control (1-9) Clover (Test 2, 24 HAT, 0.375 lbs/A): 2
- % Control Clover (Test 2, 24 HAT, 0.75 lbs/A): 22.2%
- Control (1-9) Clover (Test 2, 24 HAT, 0.75 lbs/A): 2
- % Control Clover (Test 2, 72 HAT, 0.18 lbs/A): 33.3%
- Control (1-9) Clover (Test 2, 72 HAT, 0.18 lbs/A): 3
- % Control Clover (Test 2, 72 HAT, 0.375 lbs/A): 33.3%
- Control (1-9) Clover (Test 2, 72 HAT, 0.375 lbs/A): 3
- % Control Clover (Test 2, 72 HAT, 0.75 lbs/A): 33.3%
- Control (1-9) Clover (Test 2, 72 HAT, 0.75 lbs/A): 3
- % Control Clover (Test 4, 7 DAT, 0.18 lbs/A): 33.3%
- Control (1-9) Clover (Test 4, 7 DAT, 0.18 lbs/A): 3
- % Control Clover (Test 4, 7 DAT, 0.375 lbs/A): 44.4%
- Control (1-9) Clover (Test 4, 7 DAT, 0.375 lbs/A): 4
- % Control Clover (Test 4, 7 DAT, 0.75 lbs/A): 33.3%
- Control (1-9) Clover (Test 4, 7 DAT, 0.75 lbs/A): 3
- % Control Clover (Test 4, 14 DAT, 0.18 lbs/A): 33.3%
- Control (1-9) Clover (Test 4, 14 DAT, 0.18 lbs/A): 3
- % Control Clover (Test 4, 14 DAT, 0.375 lbs/A): 55.6%
- Control (1-9) Clover (Test 4, 14 DAT, 0.375 lbs/A): 5
- % Control Clover (Test 4, 14 DAT, 0.75 lbs/A): 44.4%
- Control (1-9) Clover (Test 4, 14 DAT, 0.75 lbs/A): 4

— patent US20040266623A1, “SYNERGISTIC QUINCLORAC HERBICIDAL COMPOSITIONS” (priority 2003, published 2004)
